Results as given in patent US4847302A, “Use of certain compounds in livestock food as growth promotants for better feed utilization and improved carcass composition” (Merck & Co., Inc., priority 1988, dated 1989).
Like-named read-outs stand apart in the source and are kept apart here.

Columns and labels:
[1] = Baker et al., Fed. Proc. 42; some species of food livestock; cited from earlier work
[2] = system: Isolated Chicken Hepatocytes; assay: Inhibition of lipogenesis (14C acetate incorporation) in isolated chicken hepatocytes; type: cell-based; conditions: Gallus gallus, Hepatocyte, 2 h
Procedure, shortened: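 Chicken hepatocytes were incubated with ^14C acetate and test compounds for 2 h at 37° C. Lipids were then extracted with Doles reagent and hexane, and ^14C in total lipids was counted by liquid scintillation, reported as CPM incorporated.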

Rat Adipose Tissue = assay: Stimulation of lipolysis (glycerol production) in chopped rat adipose tissue; type: cell-based; conditions: Rattus norvegicus, 2 h
Procedure, shortened: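 Chopped epididymal/perirenal fat from 150–200 g male rats, used as whole adipose preparation, incubated with test compounds at 37° C for 2 h in FSM. Isoproterenol served as positive control. Glycerol released into the medium was measured fluorometrically as the lipolysis read-out.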

[3] = Growth promoting activity / feed utilization in livestock (general statements); type: in vivo; conditions: poultry, sheep or swine
[4] = system: Isolated Swine Adipocytes; assay: Stimulation of lipolysis (glycerol production) in isolated swine adipocytes; type: cell-based; conditions: for activation at 0.01 µM / activation at 0.05 µM / activation at 0.25 µM: Sus scrofa, Adipocyte, 2 h
Procedure, shortened: (§1)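 Collagenase-isolated adipocytes from perirenal/omental fat of 35 to 50 kg gilts (swine) or perirenal fat of 20 to 25 kg lambs (ovine) exposed to test compounds for 2 h at 37 °C in KRB with 2.5 mM glucose and 2% fatty-acid-free BSA. Glycerol released into medium measured fluorometrically; isoproterenol as positive control.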

[5] = In vivo testing in rats: growth, feed conversion and carcass composition; design: species or system rat (male Charles River CD); conditions: in diet; for Gain / Feed Intake / Weight / Carcass Composition % of Change over Control, Fat / Carcass Composition % of Change over Control, Protein: dose equivalent to 20 ppm clenbuterol (clenbuterol: 10)
Procedure, shortened: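 Male Charles River CD rats (75-90 g), ten per group, randomized by weight after four days' acclimation. Compounds premixed into ground chow at doses equivalent to 20 ppm clenbuterol on a molecular weight basis; growth, feed conversion and carcass composition assessed.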

[6] = system: Isolated Ovine Adipocytes; assay: Stimulation of lipolysis (glycerol production) in isolated ovine adipocytes; type: cell-based, sheep
Procedure, shortened: as §1

[7] = Growth, feed conversion and carcass composition of broilers raised in floor pens for 7 weeks; type: in vivo; conditions: 0.5 ppm in diet
Experimental: Compound V (bitolterol) was compared to clenbuterol for effects on growth, feed conversion and carcass composition of broilers raised in floor pens for 7 weeks. […] Bitolterol at the highest dose improved rate of gain 2.6% (P 0.01), feed conversion 3.8% (P 0.05) and carcass protein 4.9% (P 0.10).
Clenbuterol at 0.5 ppm in the diet was administered for 7 weeks to one group and only during the last 4 weeks to another group. […] Clenbuterol given for 7 weeks improved feed conversion 3.5% (P 0.05) and appeared to improve (not significant) rate of gain 0.4%, carcass weight 0.7% and carcass protein 4.0% and to decrease (not significant) carcass fat 7.1%.

[8] = read-out: percent change compared to control, 14C acetate incorporation in fatty acids, Test 1
[9] = read-out: percent change compared to control, 14C acetate incorporation in fatty acids, Test 2
[10] = read-out: percent increase compared to control, glycerol production, Test 1
[11] = read-out: percent increase compared to control, glycerol production, Test 2

Structure (SMILES): CC(C)(C)NCC(O)c1cc(Cl)c(N)c(Cl)c1 (stereo not shown) [Clenbuterol, clenbuterol]
- enhancement of food utilization and change of carcass composition [1]: functions in this way
- inhibition at 0.01 µM [2, 8]: 4.2%
- inhibition at 0.05 µM [2, 8]: 16.4%
- inhibition at 0.25 µM [2, 8]: 24.6%
- inhibition at 0.01 µM [2, 9]: 8%
- inhibition at 0.05 µM [2, 9]: 18%
- inhibition at 0.25 µM [2, 9]: 16%
- activation at 0.01 µM (Rat Adipose Tissue; [10]): 12%
- activation at 0.05 µM (Rat Adipose Tissue; [10]): 26%
- activation at 0.25 µM (Rat Adipose Tissue; [10]): 21%
- activation at 0.01 µM (Rat Adipose Tissue; [11]): 10%
- activation at 0.05 µM (Rat Adipose Tissue; [11]): 10%
- activation at 0.25 µM (Rat Adipose Tissue; [11]): 16%
- activity compared with other compounds in poultry, sheep or swine [3]: not as active as other compounds in poultry, sheep or swine
- activation at 0.01 µM [4, 10]: 27%
- activation at 0.05 µM [4, 10]: -20%
- activation at 0.25 µM [4, 10]: -27%
- activation at 0.01 µM [4, 11]: 0%
- activation at 0.05 µM [4, 11]: -20%
- activation at 0.25 µM [4, 11]: 4%
- lipolytic activity (in words) ([4]; isolated swine adipocytes): lack of activity
- Gain ([5]; Test 1, control 7.3): 7.8 g/day
- Feed Intake ([5]; Test 1, control 18.6): 19.2 g/day
- Weight ([5]; Test 1, control 191.8): 198.6 g
- Carcass Composition % of Change over Control, Fat ([5]; Test 1): -11.3%
- Carcass Composition % of Change over Control, Protein ([5]; Test 1): 11.2%
- Gain ([5]; Test 2, control 7.5): 8.2 g/day
- Feed Intake ([5]; Test 2, control 19.3): 19.9 g/day
- Weight ([5]; Test 2, control 202.3): 216.9 g
- Carcass Composition % of Change over Control, Fat ([5]; Test 2): -11.9%
- Carcass Composition % of Change over Control, Protein ([5]; Test 2): 4.3%
- minimum dose needed to give maximum improvements in gain and feed conversion ([5]; previously determined): 10 ppm
- activation at 0.05 µM ([6]; Ovis aries, Adipocyte, 2 h, read-out: percent increase compared to control, glycerol production, Test 1): 240%
- activation at 0.25 µM ([6]; Ovis aries, Adipocyte, 2 h, read-out: percent increase compared to control, glycerol production, Test 1, 0.25 μM): 325%
- activation at 0.01 µM ([6]; Ovis aries, Adipocyte, 2 h, read-out: percent increase compared to control, glycerol production, Test 2, 0.01 μM): 186%
- activation at 0.05 µM ([6]; Ovis aries, Adipocyte, 2 h, read-out: percent increase compared to control, glycerol production, Test 2): 857%
- percent increase compared to control, glycerol production ([6]; Test 1, 0.01 μM): inactive
- feed conversion and carcass protein, 7 weeks versus 4 weeks of administration [7]: slightly more effective
- improvement of feed conversion ([7]; 7 weeks, P 0.05): 3.5%
- decrease of carcass fat ([7]; 7 weeks, not significant): 7.1%
- improvement of carcass protein ([7]; 7 weeks, not significant): 4.0%
- improvement of carcass weight ([7]; 7 weeks, not significant): 0.7%
- improvement of rate of gain ([7]; 7 weeks, not significant): 0.4%
